Source: patent publication US12258578B2, “Agent for accelerating maturation or aging of cells” (JUNTENDO EDUCATIONAL FOUNDATION, priority 2019, dated 2025)
Entries after “also recorded” stand apart in the source; their conditions may differ.

Key:
[1] = tested on: nerve cells induced from human iPS cells; test: GFP-Synapsin fluorescent reporter screening for nerve cell maturation; format: cell-based; details: for acceleration of cell maturation: human iPS cell-derived neurons, same manner as in Example 1
Method: (1) A nerve cell cluster (Neurosphere) containing neural stem cells was prepared in suspension culture from iPS cells, passaged six times, and differentiated into nerves. A mature nerve cell-specific fluorescent reporter (GFP-Synapsin) was introduced using a lentiviral vector. Thereafter, the culture was switched to adherent culture, and 10 μM each of the low-molecular compound library (Sigma Aldrich) was added to the culture medium for neural differentiation, and the culture was performed for 17 days. The fluorescence intensity of GFP-Synapsin was quantified using an imaging cytometer (In cell analyzer). Using an astrocyte conditioned medium (ACM), which accelerates neural differentiation, as a control, compounds showing a fluorescence intensity closer to the control were selected (FIG. 1 and FIG. 2).

[2] = tested on: human iPS cells differentiated into dopaminergic nerve cells; test: Quantification of Nestin-positive cells during dopaminergic neural differentiation; format: cell-based; details: 1, 5 or 10 μM, culture for 10 days
Method: (§1) (1) When neural differentiation of human iPS cells into dopaminergic nerve cells was performed, KU-60019 was added to the neural differentiation medium at 1, 5 or 10 μM, followed by culture for 10 days, and the cells expressing Nestin, which is a marker of undifferentiated nervous system, were quantified to evaluate the differentiation efficiency (the culture conditions are shown in FIG. 3).

SHSY5 cells = test: Cell aging of SHSY5 cells (nuclear membrane staining, qPCR); format: cell-based, human
Source text: A decrease in Lamin B1 (LMNB1) mRNA (FIG. 12B), an increase in aging marker p16 mRNA (FIG. 12C) and a […] in aging marker p21 mRNA were detected by qPCR (mean±SEM, n=4, *p<0.01.) (FIG. 12D). That is, also in SHSY5 (immortalized cell line of human nervous system), a breakdown of the nuclear membrane was observed by the addition of KU60019.

[3] = tested on: human fibroblasts derived from a young donor; test: Aging-specific nuclear membrane abnormalities in human fibroblasts (Lamin B1, Lamin A/C); format: cell-based
Source text: The proportion of cells showing normal nuclear membrane structure in fibroblasts derived from a young donor was reduced by the action of KU60019 (mean±SEM, n=6, *p<0.01.) (FIG. 10B). In fibroblasts collected from an old donor, when compared with human fibroblasts collected from a young donor, a decrease in Lamin B1, which is a nuclear membrane marker, as an aging-specific nuclear membrane abnormality is observed.

DAN from human iPS cells [4] = test: Lamin B1 immunostaining of iPS cell-derived DAN; format: cell-based; details: day 7
Method: (1) The differentiation induction of DAN from human iPS cells was performed using the same method as in Example 2(2), and immunostaining using a Lamin B1 antibody was performed on day 7 (FIGS. 8-A-C).

[5] = tested on: human fibroblasts derived from a young donor; test: Aging-specific marker SA-Gal in human fibroblasts; format: cell-based
[6] = tested on: PARK4-iPS cell-derived DAN; test: Cell loss of PARK4-iPS cell-derived DAN (TH antibody); format: cell-based, human
Source text: Since KU-60019 accelerates neural differentiation from human iPS cells and cell aging, it was verified whether the culture period required for phenotypic detection in DAN differentiated from Parkinson's disease-iPS cells could be shortened by the addition of KU-60019 to a conventional culture method. The culture periods required until phenotypic detection in the case of addition of KU-60019 and in the case of non-addition of KU-60019 were compared using iPS cells established from a patient with typical PARK 4 (α-synuclein duplication), which develops at a relatively old age (50s and beyond) among hereditary Parkinson's diseases. (1) After performing the differentiation induction of PARK4-iPS cell-derived DAN using the same method as in Example 2(2), the cell loss of DAN was analyzed on days 7 and 10 using a TH antibody.

[7] = tested on: dopaminergic neurons (DAN) differentiated from human iPS cells; test: Quantification of tyrosine hydroxylase (TH) positive cells (DAN); format: cell-based; details: 1, 5 or 10 μM
Method: as §1, with “3). […] (2) In order to compare the amounts of dopaminergic neurons (DAN) differentiated by the same method as in (1), the quantification of tyrosine hydroxylase (TH) positive cells, which is a specific marker of mature DAN, was performed (FIG. 6).” for “3).”

DAN from human iPS cells [8] = test: γH2AX (Ser139) immunostaining of iPS cell-derived DAN; format: cell-based; details: day 7
Method: (2) The differentiation induction of DAN from human iPS cells was performed using the same method as in Example 2(2), and immunostaining using a γH2AX (Ser139) antibody was performed on day 7 (FIGD. 8-D-F).

[9] = tested on: iPS cell-derived nerve cells (DAN); test: Intracellular NAD+ concentration by colorimetric method; format: cell-based, human; details: cells recovered after 10 days
Method: (3) The differentiation induction of DAN was performed using the same method as in (2), the cells were recovered after 10 days, and the intracellular NAD^+ concentration was measured using a colorimetric method (FIG. 7).

C[C@@H]1CN(CC(=O)Nc2ccc3c(c2)Cc2cccc(-c4cc(=O)cc(N5CCOCC5)o4)c2S3)C[C@H](C)O1 [KU-60019]
fluorescence intensity of GFP-Synapsin ([1]; 10 μM, 17 days culture, compound library screening): highest fluorescence intensity among the compounds selected
acceleration of cell maturation [1]: acceleration of cell maturation was observed
amount of Nestin-positive cells [2]: decreased depending on the concentration
aging-specific nuclear membrane abnormalities (SHSY5 cells; SHSY5 cells, Lamin B1 / Lamin A/C staining): aging-specific nuclear membrane abnormalities were caused
Lamin B1 (LMNB1) mRNA (SHSY5 cells; qPCR, n=4, p<0.01): decrease
aging marker p16 mRNA (SHSY5 cells; qPCR, n=4, p<0.01): increase; also recorded: significantly elevated
aging-specific nuclear membrane abnormality (Lamin B1) ([3]; fibroblasts derived from a young donor): reduction of Lamin B1
proportion of cells showing normal nuclear membrane structure ([3]; fibroblasts derived from a young donor, n=6, p<0.01): reduced
Lamin B1 (nuclear membrane marker) ([3]; young donor-derived fibroblasts, added for 72 hours): a decrease in Lamin B1 was found
structure of Lamin B1 (nuclear membrane) (DAN from human iPS cells [4]): degraded
SA-Gal positive cells [5]: increased to a level equivalent to that in fibroblasts derived from an old donor
SA-Gal intensity ([5]; n=6, p<0.01): increased similarly
cell loss of DAN compared to normal control cells ([6]; day 7 of culture): no significant increase in cell loss
cell loss of DAN compared to normal control cells ([6]; day 10 of culture): lost cells significantly increased
culture time until Parkinson's disease phenotype is detected ([6]; nerve cells derived from iPS cells of a Parkinson's disease patient): 7 days
TH positive cells (DAN) ([7]; culture continued to day 10): this difference disappeared
TH positive cells (DAN) ([7]; day 7 of culture): increased depending on the concentration
γH2AX accumulation (DNA damage) (DAN from human iPS cells [8]): accumulated in the nucleus
intracellular NAD+ concentration [9]: decreased depending on the concentration

O=c1cc(N2CCOCC2)oc2c(-c3cccc4c3sc3ccccc34)cccc12 [NU7441]
acceleration of cell maturation [1]: only in the cells to which KU60019 was added

O=c1cc(-c2cccc3c2Sc2ccccc2S3)oc(N2CCOCC2)c1 [KU55933]
acceleration of cell maturation [1]: only in the cells to which KU60019 was added
